{"source": "paper PMC6251916", "about": "“CKD-506, a novel HDAC6-selective inhibitor, improves renal outcomes and survival in a mouse model of systemic lupus erythematosus” (Scientific Reports, 2018)", "key": {"[1]": {"tested_on": "THP1-Blue ISG human monocyte cell line", "test": "cGAMP induced IFN promoter activity reporter assay (IRF-inducible SEAP)", "assay_type": "cell-based", "conditions": "3 μM; 10 μM cGAMP; 24hr; significant", "excerpt": "Supplementary Figure 2. A representative gating scheme of the T cell subset and CD138+ […]\nTo analyze T helper subsets, splenocytes were stained with antibodies to CD4 and CD25 (FITC-conjugated anti-mouse CD4 and APC-conjugated anti-mouse CD25, BD Biosciences).\nCells were fixed and permeabilized prior to staining with Foxp3 (Tube 007), ROR-γt (Tube 008), T-bet (Tube 009), and GATA-3 (Tube 010) antibodies (PE-, BD Biosciences).\nThe splenocytes were stained with PerCP-Cy5.5-conjugated anti-mouse CD3e (PerCP-cy5.5-CD3e, eBioscience, San Diego, CA, USA), fluorescein isothiocyanate (FITC)-conjugated anti-mouse CD4 (FITC-CD4, BD Biosciences, San Jose, CA, USA), PE-cyanine7-conjugated anti-mouse CD8a (eBioscience), and APC-conjugated anti-mouse CD25 (Tube 011).\nUnstained control (no antibody, Tube 001), FITC control (FITC-conjugated anti-mouse CD4 only, Tube 002), APC control (APC-conjugated anti-mouse CD25 only, Tube 003), PE control (PE-conjugated anti-mouse CD138 (BD Bioscience) only, Tube 004), and PerCP-Cy5.5 CD3 control (PerCP-Cy5.5-conjugated anti-mouse CD3e only, Tube 005) were also used for gating. cGAMP induced IFN promoter activ ity\nSupplementary Figure 3. […]\nThe SEAP activity in the culture supernatant was measured with Flexstation (Molecular Devices, USA) after incubation with Quanti-Blue solution (InvivoGen, USA) for 15 min. […]"}, "[2]": {"tested_on": "NZB/W F1 female mice", "test": "Murine SLE model: flow cytometry of splenocytes", "assay_type": "in vivo, mouse", "excerpt": "Single cell suspensions were obtained from the spleens of NZB/W F1 mice at autopsy (at 43–44 weeks of age). The splenocytes were stained with PerCP-Cy5.5-conjugated anti-mouse CD3e (PerCP-cy5.5-CD3e, eBioscience, San Diego, CA, USA), fluorescein isothiocyanate (FITC)-conjugated anti-mouse CD4 (FITC-CD4, BD Biosciences, San Jose, CA, USA), PE-cyanine7-conjugated anti-mouse CD8a (eBioscience), allo-phycocyanin (APC)-conjugated anti-mouse CD25 (BD Biosciences) and PE-conjugated anti-mouse CD138 (BD Biosciences).\nT cell profile was analyzed as described previously; briefly, we examined proportions of Th1 cells (CD4^+CD25^+T-bet^+), Th2 cells (CD4^+CD25^+GATA-3^+), Th17 cells (CD4^+CD25^+ROR-γt^+), and Treg cells (CD4^+CD25^+Foxp3^+). To analyze T helper subsets, the splenocytes were stained with antibodies to CD4 and CD25 (FITC-conjugated anti-mouse CD4 and APC-conjugated anti-mouse CD25, BD Biosciences). Cells were fixed and permeabilized prior to staining with T-bet, GATA-3, ROR-γt and Foxp3 antibodies (PE-, BD Biosciences)."}, "[3]": {"tested_on": "NZB/W F1 female mice", "test": "Murine SLE model: serum cytokine levels (Milliplex)", "assay_type": "in vivo, mouse", "conditions": "for Serum GM-CSF / Serum IFN-γ / Serum IL-1α / Serum IL-1β / Serum IL-2 / Serum IL-4 / Serum IL-6 / Serum IL-10 / Serum IL-12(70) / Serum IL-15 / Serum IL-17 / Serum IL-22 / Serum IL-23 / Serum TGF-β1 / Serum TNF-α: at autopsy, mean ± SD", "protocol": "Serum samples were assayed using Milliplex® MAP Kits (Millipore) for granulocyte macrophage-colony stimulating factor (GM-CSF), interferon-γ (IFN-γ), interleukin-1α (IL-1α), IL-1β, IL-10, IL-12(p70), IL-15, IL-17a, IL-2, IL-4, IL-6, tumor necrosis factor α (TNF-α), transforming growth factor beta 1 (TGF-β1), IL-22, IL-23, IFN-inducible protein 10 (IP-10 (CXCL10)) and chemokine (C-C motif) ligand 2 (CCL2 (MCP-1))."}, "[4]": {"conditions": "group D: CKD-506 10 mg/kg/day, n = 10"}, "[5]": {"conditions": "group E: CKD-506 30 mg/kg/day, n = 14"}}}
{"substance": "CKD-506", "values": [{"measurement": "cGAMP induced IFN promoter activity", "setting": "[1]", "result": "repressed"}, {"measurement": "fewer CD4−CD8− cells compared with group vehicle", "setting": "[2]; group CKD10, spleen", "result": 19.1, "unit": "%"}, {"measurement": "fewer CD138+ cells compared with group vehicle", "setting": "[2]; group CKD10, spleen", "result": 21.2, "unit": "%"}, {"measurement": "fewer CD4−CD8− cells compared with group vehicle", "setting": "[2]; group CKD30, spleen", "result": 28.3, "unit": "%"}, {"measurement": "fewer CD138+ cells compared with group vehicle", "setting": "[2]; group CKD30, spleen", "result": 25.2, "unit": "%"}, {"measurement": "CD4−CD8+ T cells in spleen vs vehicle", "setting": "[2]; group CKD50", "result": "significantly more"}, {"measurement": "percentage of CD25+ cells in spleen vs vehicle", "setting": "[2]; group CKD50", "result": "significantly lower"}, {"measurement": "T-bet expression by CD4+ cells vs vehicle", "setting": "[2]; group CKD50, spleen", "result": "significantly lower"}, {"measurement": "fewer CD4−CD8− cells compared with group vehicle", "setting": "[2]; group CKD50, spleen", "result": 27.3, "unit": "%"}, {"measurement": "fewer CD138+ cells compared with group vehicle", "setting": "[2]; group CKD50, spleen", "result": 31.6, "unit": "%"}, {"measurement": "serum levels of IP-10 vs vehicle", "setting": "[3]; group CKD50, 36 weeks of age", "result": "significantly lower"}, {"measurement": "Mean serum levels of CCL2 vs vehicle", "setting": "[3]; group CKD50, 36 weeks of age, difference not statistically significant", "result": "lower"}, {"measurement": "Serum GM-CSF", "setting": "[3]; [4]", "result": "2.65 ± 8.38", "unit": "pg/mL"}, {"measurement": "Serum IFN-γ", "setting": "[3]; [4]", "result": "1.06 ± 3.34", "unit": "pg/mL"}, {"measurement": "Serum IL-1α", "setting": "[3]; [4]", "result": "371.96 ± 261.58", "unit": "pg/mL"}, {"measurement": "Serum IL-1β", "setting": "[3]; [4]", "result": "1.27 ± 2.04", "unit": "pg/mL"}, {"measurement": "Serum IL-2", "setting": "[3]; [4]", "result": "1.91 ± 5.61", "unit": "pg/mL"}, {"measurement": "Serum IL-4", "setting": "[3]; [4]", "result": "1.74 ± 0.60", "unit": "pg/mL"}, {"measurement": "Serum IL-6", "setting": "[3]; [4]", "result": "7.21 ± 7.41", "unit": "pg/mL"}, {"measurement": "Serum IL-10", "setting": "[3]; [4]", "result": "25.00 ± 25.33", "unit": "pg/mL"}, {"measurement": "Serum IL-12(70)", "setting": "[3]; [4]", "result": "1.94 ± 3.69", "unit": "pg/mL"}, {"measurement": "Serum IL-15", "setting": "[3]; [4]", "result": "184.36 ± 280.13", "unit": "pg/mL"}, {"measurement": "Serum IL-17", "setting": "[3]; [4]", "result": "10.40 ± 12.20", "unit": "pg/mL"}, {"measurement": "Serum IL-22", "setting": "[3]; [4]", "result": "27.05 ± 31.48", "unit": "pg/mL"}, {"measurement": "Serum IL-23", "setting": "[3]; [4]", "result": "1.96 ± 6.20", "unit": "pg/mL"}, {"measurement": "Serum TGF-β1", "setting": "[3]; [4]", "result": "73356.45 ± 22951.98", "unit": "pg/mL"}, {"measurement": "Serum TNF-α", "setting": "[3]; [4]", "result": "7.91 ± 8.45", "unit": "pg/mL"}, {"measurement": "Serum GM-CSF", "setting": "[3]; [5]", "result": "5.32 ± 15.20", "unit": "pg/mL"}, {"measurement": "Serum IFN-γ", "setting": "[3]; [5]", "result": "6.60 ± 15.24", "unit": "pg/mL"}, {"measurement": "Serum IL-1α", "setting": "[3]; [5]", "result": "458.40 ± 339.71", "unit": "pg/mL"}, {"measurement": "Serum IL-1β", "setting": "[3]; [5]", "result": "74.66 ± 264.02", "unit": "pg/mL"}, {"measurement": "Serum IL-2", "setting": "[3]; [5]", "result": "9.32 ± 17.79", "unit": "pg/mL"}, {"measurement": "Serum IL-4", "setting": "[3]; [5]", "result": "8.60 ± 25.44", "unit": "pg/mL"}, {"measurement": "Serum IL-6", "setting": "[3]; [5]", "result": "21.23 ± 50.94", "unit": "pg/mL"}, {"measurement": "Serum IL-10", "setting": "[3]; [5]", "result": "56.55 ± 146.53", "unit": "pg/mL"}, {"measurement": "Serum IL-12(70)", "setting": "[3]; [5]", "result": "74.50 ± 238.09", "unit": "pg/mL"}, {"measurement": "Serum IL-15", "setting": "[3]; [5]", "result": "162.41 ± 200.63", "unit": "pg/mL"}, {"measurement": "Serum IL-17", "setting": "[3]; [5]", "result": "21.14 ± 54.60", "unit": "pg/mL"}, {"measurement": "Serum IL-22", "setting": "[3]; [5]", "result": "13.00 ± 16.48", "unit": "pg/mL"}, {"measurement": "Serum IL-23", "setting": "[3]; [5]", "result": "100.56 ± 376.25", "unit": "pg/mL"}, {"measurement": "Serum TGF-β1", "setting": "[3]; [5]", "result": "58807.36 ± 25015.67", "unit": "pg/mL"}, {"measurement": "Serum TNF-α", "setting": "[3]; [5]", "result": "16.25 ± 50.35", "unit": "pg/mL"}, {"measurement": "Serum GM-CSF", "setting": "[3]; group F: 50 mg/kg/day, n = 14", "result": "1.89 ± 7.09", "unit": "pg/mL"}, {"measurement": "Serum IFN-γ", "setting": "[3]; group F: 50 mg/kg/day, n = 14", "result": "2.07 ± 5.38", "unit": "pg/mL"}, {"measurement": "Serum IL-1α", "setting": "[3]; group F: 50 mg/kg/day, n = 14", "result": "629.16 ± 480.71", "unit": "pg/mL"}, {"measurement": "Serum IL-1β", "setting": "[3]; group F: 50 mg/kg/day, n = 14", "result": "3.86 ± 7.83", "unit": "pg/mL"}, {"measurement": "Serum IL-2", "setting": "[3]; group F: 50 mg/kg/day, n = 14", "result": "4.09 ± 9.84", "unit": "pg/mL"}, {"measurement": "Serum IL-4", "setting": "[3]; group F: 50 mg/kg/day, n = 14", "result": "3.70 ± 6.48", "unit": "pg/mL"}, {"measurement": "Serum IL-6", "setting": "[3]; group F: 50 mg/kg/day, n = 14", "result": "5.69 ± 8.94", "unit": "pg/mL"}, {"measurement": "Serum IL-10", "setting": "[3]; group F: 50 mg/kg/day, n = 14", "result": "8.31 ± 14.15", "unit": "pg/mL"}, {"measurement": "Serum IL-12(70)", "setting": "[3]; group F: 50 mg/kg/day, n = 14", "result": "15.62 ± 45.25", "unit": "pg/mL"}, {"measurement": "Serum IL-15", "setting": "[3]; group F: 50 mg/kg/day, n = 14", "result": "26.24 ± 28.73", "unit": "pg/mL"}, {"measurement": "Serum IL-17", "setting": "[3]; group F: 50 mg/kg/day, n = 14", "result": "4.82 ± 7.15", "unit": "pg/mL"}, {"measurement": "Serum IL-22", "setting": "[3]; group F: 50 mg/kg/day, n = 14", "result": "6.37 ± 5.56", "unit": "pg/mL"}, {"measurement": "Serum IL-23", "setting": "[3]; group F: 50 mg/kg/day, n = 14", "result": "41.34 ± 154.68", "unit": "pg/mL"}, {"measurement": "Serum TGF-β1", "setting": "[3]; group F: 50 mg/kg/day, n = 14", "result": "73110.92 ± 17325.08", "unit": "pg/mL"}, {"measurement": "Serum TNF-α", "setting": "[3]; group F: 50 mg/kg/day, n = 14", "result": "1.24 ± 2.60", "unit": "pg/mL"}]}
